Test results published in patent US9302999B2, “Substituted triazoles as herbicides” (E. I. DU PONT DE NEMOURS AND COMPANY, priority 2012, dated 2016).

Key:
Type in all cases: in vivo
[1] = test system: velvetleaf (Abutilon theophrasti); test: Test A pre-/postemergence: velvetleaf; conditions: for Velvetleaf plant response rating: Postemergence; for Plant response rating, Velvetleaf: Preemergence
Description: (§1) Seeds of barnyardgrass (Echinochloa crus-galli), crabgrass, large (large crabgrass, Digitaria sanguinalis), foxtail, giant (giant foxtail, Setaria faberii), morningglory (Ipomoea spp.), pigweed (Amaranthus retroflexus), velvetleaf (Abutilon theophrasti), wheat (Triticum aestivum), and corn (Zea mays) were planted into a blend of loam soil and sand and treated preemergence with a directed soil spray using test chemicals formulated in a non-phytotoxic solvent mixture which included a surfactant. At the same time these species were also treated with postemergence applications of test chemicals formulated in the same manner.
(§2) Plants ranged in height from two to ten cm and were in the one- to two-leaf stage for the postemergence treatment. Treated plants and untreated controls were maintained in a greenhouse for approximately ten days, after which time all treated plants were compared to untreated controls and visually evaluated for injury. Plant response ratings, summarized in Table A, are based on a 0 to 100 scale where 0 is no effect and 100 is complete control. A dash (-) response means no test result.

[2] = test system: wheat (Triticum aestivum); test: Test A pre-/postemergence: wheat; conditions: for Wheat plant response rating: Postemergence; for Plant response rating, Wheat: Preemergence
Description: as §1, §2

[3] = test system: pigweed (Amaranthus retroflexus); test: Test A pre-/postemergence: pigweed; conditions: for Pigweed plant response rating: Postemergence; for Plant response rating, Pigweed: Preemergence
Description: as §1, §2

[4] = test system: morningglory (Ipomoea spp.); test: Test A pre-/postemergence: morningglory; conditions: for Morningglory plant response rating: Postemergence; for Plant response rating, Morningglory: Preemergence
Description: as §1, §2

corn (Zea mays) = test: Test A pre-/postemergence: corn; conditions: for Corn plant response rating: Postemergence; for Plant response rating, Corn: Preemergence
Description: as §1, §2

[5] = test system: crabgrass, large (large crabgrass, Digitaria sanguinalis); test: Test A pre-/postemergence: crabgrass, large; conditions: for Crabgrass, Large plant response rating: Postemergence; for Plant response rating, Crabgrass, Large: Preemergence
Description: as §1, §2

[6] = test system: barnyardgrass (Echinochloa crus-galli); test: Test A pre-/postemergence: barnyardgrass; conditions: for Barnyardgrass plant response rating: Postemergence; for Plant response rating, Barnyardgrass: Preemergence
Description: as §1, §2

[7] = test system: foxtail, giant (giant foxtail, Setaria faberii); test: Test A pre-/postemergence: foxtail, giant; conditions: for Foxtail, Giant plant response rating: Postemergence; for Plant response rating, Foxtail, Giant: Preemergence
Description: as §1, §2

[8] = 125 g ai/ha, 0 to 100 scale, 0 is no effect, 100 is complete control
[9] = 500 g ai/ha, visual rating on 0 to 100 scale (0 no effect, 100 complete control), approximately ten days
[10] = 125 g ai/ha, 0 to 100 scale where 0 is no effect and 100 is complete control
[11] = 500 g ai/ha, 0 to 100 scale, 0 is no effect, 100 is complete control
[12] = 125 g ai/ha, 0 to 100 scale (0 no effect, 100 complete control)
[13] = 500 g ai/ha, 0 to 100 scale (0 no effect, 100 complete control)

Cc1nn(-c2ccc(F)cc2)nc1Oc1ccc(Cl)c(C(F)(F)F)c1 [Compound 99]
Velvetleaf plant response rating [1, 8]: 10 | Velvetleaf plant response rating [1, 9]: 60 | Plant response rating, Velvetleaf [1, 10]: 0 | Plant response rating, Velvetleaf [1, 11]: 20 | Wheat plant response rating [2, 8]: 0 | Wheat plant response rating [2, 9]: 20 | Plant response rating, Wheat [2, 10]: 0 | Plant response rating, Wheat [2, 11]: 0 | Pigweed plant response rating [3, 8]: 70 | Pigweed plant response rating [3, 9]: 100 | Plant response rating, Pigweed [3, 10]: 20 | Plant response rating, Pigweed [3, 11]: 60 | Morningglory plant response rating [4, 8]: 60 | Morningglory plant response rating [4, 9]: 80 | Plant response rating, Morningglory [4, 10]: 0 | Plant response rating, Morningglory [4, 11]: 0 | Corn plant response rating (corn (Zea mays); [8]): 20 | Corn plant response rating (corn (Zea mays); [9]): 20 | Plant response rating, Corn (corn (Zea mays); [12]): 0 | Plant response rating, Corn (corn (Zea mays); [11]): 0 | Crabgrass, Large plant response rating [5, 8]: 30 | Crabgrass, Large plant response rating [5, 9]: 70 | Plant response rating, Crabgrass, Large [5, 12]: 30 | Plant response rating, Crabgrass, Large [5, 11]: 60 | Barnyardgrass plant response rating [6, 8]: 10 | Barnyardgrass plant response rating [6, 9]: 30 | Plant response rating, Barnyardgrass [6, 12]: 0 | Plant response rating, Barnyardgrass [6, 11]: 10 | Foxtail, Giant plant response rating [7, 8]: 20 | Foxtail, Giant plant response rating [7, 9]: 80 | Plant response rating, Foxtail, Giant [7, 10]: 10 | Plant response rating, Foxtail, Giant [7, 11]: 80

Cc1nn(-c2ccc(F)cc2)nc1Oc1cccc(OC(F)(F)F)c1 [Compound 100]
Velvetleaf plant response rating [1, 8]: 30 | Velvetleaf plant response rating [1, 9]: 70 | Plant response rating, Velvetleaf [1, 10]: 0 | Plant response rating, Velvetleaf [1, 11]: 0 | Wheat plant response rating [2, 8]: 0 | Wheat plant response rating [2, 9]: 20 | Plant response rating, Wheat [2, 10]: 0 | Plant response rating, Wheat [2, 11]: 0 | Pigweed plant response rating [3, 8]: 80 | Pigweed plant response rating [3, 9]: 90 | Plant response rating, Pigweed [3, 10]: 10 | Plant response rating, Pigweed [3, 11]: 90 | Morningglory plant response rating [4, 8]: 90 | Morningglory plant response rating [4, 9]: 90 | Plant response rating, Morningglory [4, 10]: 0 | Plant response rating, Morningglory [4, 11]: 0 | Corn plant response rating (corn (Zea mays); [8]): 10 | Corn plant response rating (corn (Zea mays); [9]): 20 | Plant response rating, Corn (corn (Zea mays); [12]): 0 | Plant response rating, Corn (corn (Zea mays); [11]): 0 | Crabgrass, Large plant response rating [5, 8]: 60 | Crabgrass, Large plant response rating [5, 9]: 80 | Plant response rating, Crabgrass, Large [5, 12]: 10 | Plant response rating, Crabgrass, Large [5, 11]: 90 | Barnyardgrass plant response rating [6, 8]: 10 | Barnyardgrass plant response rating [6, 9]: 30 | Plant response rating, Barnyardgrass [6, 12]: 0 | Plant response rating, Barnyardgrass [6, 11]: 20 | Foxtail, Giant plant response rating [7, 8]: 50 | Foxtail, Giant plant response rating [7, 9]: 70 | Plant response rating, Foxtail, Giant [7, 10]: 20 | Plant response rating, Foxtail, Giant [7, 11]: 70

Cc1nn(-c2ccc(C(F)(F)F)cc2)nc1Oc1ccc(Cl)c(C(F)(F)F)c1 [Compound 103]
Velvetleaf plant response rating [1, 8]: 0 | Velvetleaf plant response rating [1, 9]: 10 | Plant response rating, Velvetleaf [1, 10]: 0 | Plant response rating, Velvetleaf [1, 11]: 0 | Wheat plant response rating [2, 8]: 0 | Wheat plant response rating [2, 9]: 0 | Plant response rating, Wheat [2, 10]: 0 | Plant response rating, Wheat [2, 11]: 0 | Pigweed plant response rating [3, 8]: 50 | Pigweed plant response rating [3, 9]: 70 | Plant response rating, Pigweed [3, 10]: 10 | Plant response rating, Pigweed [3, 11]: 30 | Morningglory plant response rating [4, 8]: 0 | Morningglory plant response rating [4, 9]: 0 | Plant response rating, Morningglory [4, 10]: 0 | Plant response rating, Morningglory [4, 11]: 0 | Corn plant response rating (corn (Zea mays); [8]): 0 | Corn plant response rating (corn (Zea mays); [9]): 0 | Plant response rating, Corn (corn (Zea mays); [12]): 0 | Plant response rating, Corn (corn (Zea mays); [11]): 0 | Crabgrass, Large plant response rating [5, 8]: 0 | Crabgrass, Large plant response rating [5, 9]: 30 | Plant response rating, Crabgrass, Large [5, 12]: 0 | Plant response rating, Crabgrass, Large [5, 11]: 10 | Barnyardgrass plant response rating [6, 8]: 0 | Barnyardgrass plant response rating [6, 9]: 0 | Plant response rating, Barnyardgrass [6, 12]: 0 | Plant response rating, Barnyardgrass [6, 11]: 0 | Foxtail, Giant plant response rating [7, 8]: 0 | Foxtail, Giant plant response rating [7, 9]: 20 | Plant response rating, Foxtail, Giant [7, 10]: 0 | Plant response rating, Foxtail, Giant [7, 11]: 0

OCc1nn(-c2ccc(C(F)(F)F)cc2)nc1Oc1cccc(C(F)(F)F)c1 [Compound 110]
Velvetleaf plant response rating [1, 8]: 30 | Velvetleaf plant response rating [1, 9]: 60 | Plant response rating, Velvetleaf [1, 10]: 0 | Plant response rating, Velvetleaf [1, 11]: 10 | Wheat plant response rating [2, 8]: 10 | Wheat plant response rating [2, 9]: 30 | Plant response rating, Wheat [2, 10]: 0 | Plant response rating, Wheat [2, 11]: 0 | Pigweed plant response rating [3, 8]: 70 | Pigweed plant response rating [3, 9]: 100 | Plant response rating, Pigweed [3, 10]: 0 | Plant response rating, Pigweed [3, 11]: 50 | Morningglory plant response rating [4, 8]: 90 | Morningglory plant response rating [4, 9]: 100 | Plant response rating, Morningglory [4, 10]: 10 | Plant response rating, Morningglory [4, 11]: 20 | Corn plant response rating (corn (Zea mays); [8]): 20 | Corn plant response rating (corn (Zea mays); [9]): 30 | Plant response rating, Corn (corn (Zea mays); [12]): 0 | Plant response rating, Corn (corn (Zea mays); [11]): 0 | Crabgrass, Large plant response rating [5, 8]: 50 | Crabgrass, Large plant response rating [5, 9]: 70 | Plant response rating, Crabgrass, Large [5, 12]: 0 | Plant response rating, Crabgrass, Large [5, 11]: 20 | Barnyardgrass plant response rating [6, 8]: 20 | Barnyardgrass plant response rating [6, 9]: 30 | Plant response rating, Barnyardgrass [6, 12]: 0 | Plant response rating, Barnyardgrass [6, 11]: 0 | Foxtail, Giant plant response rating [7, 8]: 20 | Foxtail, Giant plant response rating [7, 9]: 30 | Plant response rating, Foxtail, Giant [7, 10]: 0 | Plant response rating, Foxtail, Giant [7, 11]: 20

Cc1nn(-c2ccc(F)cc2)nc1Cn1cnc(C(F)(F)F)c1 [Compound 112]
Velvetleaf plant response rating [1, 8]: 50 | Velvetleaf plant response rating [1, 9]: 60 | Plant response rating, Velvetleaf [1, 10]: 0 | Plant response rating, Velvetleaf [1, 13]: 20 | Wheat plant response rating [2, 8]: 10 | Wheat plant response rating [2, 9]: 30 | Plant response rating, Wheat [2, 10]: 0 | Plant response rating, Wheat [2, 13]: 0 | Pigweed plant response rating [3, 8]: 90 | Pigweed plant response rating [3, 9]: 100 | Plant response rating, Pigweed [3, 10]: 90 | Plant response rating, Pigweed [3, 13]: 100 | Morningglory plant response rating [4, 8]: 60 | Morningglory plant response rating [4, 9]: 100 | Plant response rating, Morningglory [4, 10]: 0 | Plant response rating, Morningglory [4, 13]: 20 | Corn plant response rating (corn (Zea mays); [8]): 20 | Corn plant response rating (corn (Zea mays); [9]): 20 | Plant response rating, Corn (corn (Zea mays); [10]): 0 | Plant response rating, Corn (corn (Zea mays); [13]): 0 | Crabgrass, Large plant response rating [5, 8]: 50 | Crabgrass, Large plant response rating [5, 9]: 90 | Plant response rating, Crabgrass, Large [5, 10]: 80 | Plant response rating, Crabgrass, Large [5, 13]: 100 | Barnyardgrass plant response rating [6, 8]: 0 | Barnyardgrass plant response rating [6, 9]: 30 | Plant response rating, Barnyardgrass [6, 10]: 0 | Plant response rating, Barnyardgrass [6, 13]: 40 | Foxtail, Giant plant response rating [7, 8]: 20 | Foxtail, Giant plant response rating [7, 9]: 80 | Plant response rating, Foxtail, Giant [7, 10]: 60 | Plant response rating, Foxtail, Giant [7, 13]: 90
